From patent publication US20090215752A1, “Compounds, preparation and therapeutic use thereof” (priority 2005, published 2009) come the findings set out here.

One test deals with σ receptors. Description: Isolated organ bioassay, field-stimulated vas deferens: test for agonist activity. Further details: species or system guinea pig. Conditions: mean, n=2. The method, then:
Segments of guinea pig vas deferens were suspended in 20-ml organ baths containing an oxygenated (95% O2 and 5% CO2) and pre-warmed (37° C.) physiological salt solution of the following composition (in mM): NaCl 118.0, KCl 4.7, MgSO4 1.2, CaCl2 2.5, KH2PO4 1.2, NaHCO3 25.0 and glucose 11.0 (pH 7.4). Yohimbine (1 μM), (−) sulpiride (1 μM), atropine (1 μM) and naloxone (1 μM) were also present throughout the experiments to block the α2-adrenergic, dopamine D2, muscarinic and opioid receptors, respectively. The tissues were connected to force transducers for isometric tension recordings. They were stretched to a resting tension of 0.5 g, allowed to equilibrate for at least 30 min during which time they were washed repeatedly and the tension readjusted. Thereafter, they were stimulated electrically using a constant current stimulator.
The tissues were exposed to a submaximal concentration of the reference agonist (+) SKF-10047 (100 μM) to verify responsiveness and to obtain a control response. Following washings and recovery of the twitch contraction amplitude, the tissues were exposed to increasing concentrations of substance or the same agonist. The different concentrations were added cumulatively and each was left in contact with the tissues until a stable response was obtained or for a maximum of 15 min. If an agonist-like response (enhancement of twitch contractions) was obtained, the reference antagonist rimcazole (10 μM) was tested against the highest concentration of substance to confirm the involvement of the σ receptors in this response.
The parameter measured was the maximum change in the twitch contraction amplitude induced by each compound concentration. The results are expressed as a percent variation of the control twitch contraction amplitude (mean values). The effects of substance tested at 1.0 10^−6 M, 3.0 10^−6 M and 1.0 10^−5 M for agonist and antagonist activities at the σ receptors in the guinea pig vas deferens bioassay are summarized in Tables 6-7 where those of the reference compounds are also reported.

In a further test the target is T1, PDE5 (Bos taurus, UniProt Q28156).
T1 construct: PDE3, PDE4 and PDE5 from vascular smooth muscle; from tissue; host or cells: bovine aortic media (vascular smooth muscle), DEAE-Sephacel fraction
Description: Selectivity: inhibition of PDE5 (radioenzymatic assay). In kind it is biochemical, bovine. The settings on record: Table 2. On the procedure: 2.1.1. Isolation of Phosphodiesterases from Smooth Muscle A 3 g segment of bovine aortic media cut into pieces with scissors was homogenized with an ultra-turrax then a potter glass/glass homogenizer in 7 volumes by weight of buffer A containing a protease inhibitor cocktail (20 mM Tris-HCl, 0.25 M saccharose, 2 mM magnesium acetate, 1 mM dithiothreitol, 5 mM EGTA, 2000 U/ml aprotinin, 10 mg/l leupeptin and 10 mg/l soya trypsic inhibitor). The homogenizate was centrifuged at 105,000 g for 1 hour. The supernatant was loaded on a DEAE-Sephacel column (15×1.6 cm) pre-equilibrated with buffer B (buffer A without the saccharose, EGTA and protease inhibitors). The column was washed until there was no detectable absorption at 280 nm, then eluted with a linear gradient of NaCl (0-0.5 M) in buffer B. 3-ml fractions were collected and enzyme activity was determined under the conditions described hereinbelow to localize the different enzymes PDE1, PDE3, PDE4 and PDE5 which were aliquoted and frozen at −80° C. (Lugnier et al., Biochem. Phamacol., 1986, 35: 1746-1751). […]
Cyclic nucleotide phosphodiesterase activity was determined by a radioenzymatic method using tritium-labelled cyclic GMP or AMP (1 μM) as substrate (Lugnier et al., 1986). ^3H-labelled adenosine or guanosine monophosphate formed by hydrolysis of the radiolabelled cyclic nucleotide was then converted to ^3H-labelled adenosine or guanosine in a second reaction with one nucleotidase in excess. […] Nucleoside radioactivity was determined by liquid scintillation counting. […]
The activity of the compounds was evaluated on other phosphodiesterase isoforms, particularly basal state or calmodulin-activated PDE1 from vascular smooth muscle, PDE3, PDE4 and PDE5 from vascular smooth muscle. The results obtained are presented in Tables 1 and 2 hereinbelow and are expressed as the percentage inhibition of enzymatic activity produced by […] of the test compound.

The next test has as its target T2, sigma 1 receptors (Cavia porcellus, UniProt Q60492).
T2 construct: The sigma 1 receptors were isolated from guinea pig cerebral cortex; from tissue; host or cells: guinea pig cerebral cortex
Kind of test: Sigma 1 receptor binding ([3H](+)pentazocine). The settings on record: [3H](+)pentazocine 2 nM, guinea pig cerebral cortex, read-out: σ1 percentage inhibition at 10 μM. On the procedure: The sigma 1 receptors were isolated from guinea pig cerebral cortex according to the method described in Bowen et al., 1993.
Sigma 1 receptor binding was determined by a radioligand method using tritium-labelled (+)pentazocine (2 nM) as substrate (Bowen et al., 1993). Sigma 2 receptor binding was determined by a radioligand method using tritium-labelled DTG (+300 nM (+)pentazocine) (5 nM) as substrate (Bowen et al., 1993). Ligand radioactivity was determined by liquid scintillation counting. For sigma 1 binding evaluation, ligand incubations were carried out for one hundred fifty minutes at 22° C. For sigma 2 binding evaluation, ligand incubations were carried out for one hundred twenty minutes at 22° C. The experiments were conducted in duplicate.
The specific ligand binding to the sigma receptors was defined as the difference between the total binding and the non specific binding determined in presence of an excess of unlabelled ligand. The results obtained are presented in Table 4 hereinbelow and are expressed as percent of control specific binding and as a percent inhibition of control specific binding obtained in presence of 10 μM of substance.

Another test has as its target T3, 5-HT transporter (Homo sapiens, UniProt P31645).
T3 construct: expressed in transfected cells; host or cells: HEK-293
Kind of test: Serotonergic transporter binding ([3H]imipramine). Conditions: [3H]imipramine 2 nM, HEK-293 recombinant, read-out: percentage inhibition at 10 μM of control specific binding to the serotonergic transporter. On the procedure:
The serotonergic 5-HT transporter was isolated from human recombinant HEK-293 cells according to the method described by Tatsumi et al. (1997), Pharmacological profile of antidepressants and related compounds at human monoamine transporters, Eur. J. Pharmacol., 340: 249-258.
Serotonergic transporter binding was determined by a radioligand method using tritium-labelled imipramine (2 nM) as substrate (Tatsumi et al., 1999). Ligand radioactivity was determined by liquid scintillation counting. Ligand incubations were carried out for thirty minutes at 22° C. The experiment was conducted in duplicate.
The specific ligand binding to the serotonergic transporter was defined as the difference between the total binding and the non specific binding determined in presence of an excess of unlabelled ligand. The results obtained are presented in Table 3 hereinbelow and are expressed as percent of control specific binding and as a percent inhibition of control specific binding obtained in presence of 10 μM of substance.

T3 sequence (P31645 whole entry): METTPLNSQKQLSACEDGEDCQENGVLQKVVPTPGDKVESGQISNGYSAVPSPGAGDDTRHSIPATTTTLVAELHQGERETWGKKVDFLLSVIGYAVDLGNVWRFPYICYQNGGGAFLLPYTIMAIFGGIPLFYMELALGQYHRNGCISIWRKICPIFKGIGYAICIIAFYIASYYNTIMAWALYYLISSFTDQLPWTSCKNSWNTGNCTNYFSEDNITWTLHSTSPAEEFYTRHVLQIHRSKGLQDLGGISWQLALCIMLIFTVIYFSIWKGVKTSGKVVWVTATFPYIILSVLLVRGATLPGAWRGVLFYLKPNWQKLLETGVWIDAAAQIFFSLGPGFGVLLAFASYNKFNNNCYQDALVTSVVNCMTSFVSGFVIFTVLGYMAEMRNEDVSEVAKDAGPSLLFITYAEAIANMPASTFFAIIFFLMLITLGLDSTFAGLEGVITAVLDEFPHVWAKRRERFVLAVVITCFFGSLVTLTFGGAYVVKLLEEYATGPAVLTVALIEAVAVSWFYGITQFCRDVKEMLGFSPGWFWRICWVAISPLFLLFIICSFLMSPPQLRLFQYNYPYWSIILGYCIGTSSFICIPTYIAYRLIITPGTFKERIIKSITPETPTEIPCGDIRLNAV
T2 sequence (Q60492 whole entry): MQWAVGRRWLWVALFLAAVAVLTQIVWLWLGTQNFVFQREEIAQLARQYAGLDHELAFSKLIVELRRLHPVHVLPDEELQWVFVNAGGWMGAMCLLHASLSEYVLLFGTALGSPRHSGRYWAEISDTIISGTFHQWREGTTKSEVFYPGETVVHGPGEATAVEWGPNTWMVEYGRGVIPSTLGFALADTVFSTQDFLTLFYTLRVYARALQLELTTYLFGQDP

For `COc1cc2c(c(OC)c1-c1ccccc1)C(c1cccc(C(N)=O)c1)=NCC(=O)N2C` [Compound 17, 3-(6,8-Dimethoxy-1-methyl-2-oxo-7-phenyl-2,3-dihydro-1H-benzo[e][1,4]diazepin-5-yl)-benzamide], the “Response to the compound, variation of twitch contraction amplitude” value in the test with σ receptors (1.0 10^−5 M) is listed as “+33%”; in the test with σ receptors (1.0 10^−6 M), 0%; in the test on σ receptors (3.0 10^−6 M) it was 0%. Besides, in the test on σ receptors (highest compound concentration plus rimcazole 1.0 10^−5 M), the “Response to the highest concentration of the compound +Rimcazole (1.0 10^−5 M)” value was −9%. The inhibition at 10 µM on PDE5 (10 μM compound, read-out: PDE5 percentage inhibition at 10 μM) is 22%; on sigma 1 receptors, 93%; at 5-HT transporter, 98%. The IC50 against PDE5 (value in square brackets) stood at 42 µM.

By inhibition is commonly meant the relative decrease from the control value, in per cent. As a reminder, the IC50 is the point on the concentration scale where inhibition reaches its midpoint. A lower IC50 goes with inhibition by little substance.
